From patent US20250066502A1, “MEDICAMENT FOR TREATMENT AND/OR PREVENTION OF CANCER” (TORAY INDUSTRIES, INC., priority 2021, published 2025)

Key:
Format in all cases: cell-based
[1] = test system: human lung cancer cell line A549; experiment: THP-1-mediated antibody-dependent phagocytic activity against A549; details: THP-1 coculture 2.5 hours
Protocol: (§1) Specifically, in each combination test group (a romidepsin combination test group, a panobinostat combination test group, and a cisplatin combination test group), the indicated drug used in combination was applied to human cancer cells, and then the cancer cells were cocultured with human monocytic cells (THP-1) in the presence of the anti-CAPRIN-1 antibody, and the antibody-mediated phagocytic activity against the cancer cells by THP-1 was evaluated. […] The concentration of the drug used in combination was set to a concentration that decreased the proliferation rate of the cancer cells by about half at the completion of culture. As a control, a test group without a drug used in combination was established. […] Further, dead cells were stained with propidium iodide (PI) (final concentration: 0.1 μg/mL), followed by the measurement of fluorescence from the cells by flow cytometry. PI-positive dead cells were excluded from analysis. The human monocytic cells THP-1 recognize an antibody bound onto cancer cells and phagocytize the cancer cells. At that time, if the cancer cells have been stained with calcein-AM, the monocytic cells ingesting the cancer cells by phagocytosis also become positive to calcein-AM. Thus, the phagocytic activity in this evaluation system was calculated as the ratio (%) of APC-positive/calcein-AM-positive cells to the whole calcein-AM-positive population.

[2] = test system: human prostate cancer cell line DU145; experiment: THP-1-mediated antibody-dependent phagocytic activity against DU145; details: THP-1 coculture 2.5 hours
Protocol: as §1

[3] = test system: human bile duct cancer cell line KKU-100; experiment: THP-1-mediated antibody-dependent phagocytic activity against KKU-100; details: romidepsin combination test group (2 nM, 2 days) with anti-CAPRIN-1 antibody, THP-1 coculture 1 hour
Protocol: (§2) Specifically, in each combination test group (a romidepsin combination test group and a panobinostat combination test group), the indicated drug used in combination was applied to human cancer cells, and then the cancer cells were cocultured with human monocytic cells (THP-1) in the presence of the anti-CAPRIN-1 antibody, and the antibody-mediated phagocytic activity against the cancer cells by THP-1 was evaluated. […] As a control, a test group without a drug used in combination was established. […] Further, dead cells were stained with propidium iodide (PI) (final concentration: 0.1 μg/mL), followed by the measurement of fluorescence from the cells by flow cytometry. PI-positive dead cells were excluded from analysis. The human monocytic cells THP-1 recognize an antibody bound onto cancer cells and phagocytize the cancer cells. At that time, if the cancer cells have been stained with calcein-AM, the monocytic cells ingesting the cancer cells by phagocytosis also become positive to calcein-AM. Thus, the phagocytic activity in this evaluation system was calculated as the ratio (%) of APC-positive/calcein-AM-positive cells to the whole calcein-AM-positive population.

[4] = test system: human uterus cancer cell line MFE-296; experiment: THP-1-mediated antibody-dependent phagocytic activity against MFE-296; details: romidepsin combination test group (20 nM, 2 days) with anti-CAPRIN-1 antibody, THP-1 coculture 1 hour
Protocol: as §2

[5] = test system: human colon cancer cell line HCT116; experiment: THP-1-mediated antibody-dependent phagocytic activity against HCT116; details: panobinostat combination test group (10 nM, 2 days) with anti-CAPRIN-1 antibody, THP-1 coculture 2.5 hours
Protocol: as §1

[6] = test system: human breast cancer cell line MDA-MB-231; experiment: THP-1-mediated antibody-dependent phagocytic activity against MDA-MB-231; details: panobinostat combination test group (30 nM, 2 days) with anti-CAPRIN-1 antibody, THP-1 coculture 1 hour
Protocol: as §2

[7] = test system: human ovarian cancer cell line TOV-21G; experiment: THP-1-mediated antibody-dependent phagocytic activity against TOV-21G; details: panobinostat combination test group (30 nM, 2 days) with anti-CAPRIN-1 antibody, THP-1 coculture 1 hour
Protocol: as §2

[8] = romidepsin combination test group (1 nM, 2 days) with anti-CAPRIN-1 antibody
[9] = panobinostat combination test group (10 nM, 2 days) with anti-CAPRIN-1 antibody

With `C/C=C1\NC(=O)[C@H]2CSSCC/C=C/[C@H](CC(=O)N[C@H](C(C)C)C(=O)N2)OC(=O)[C@H](C(C)C)NC1=O` [romidepsin, (1S,4S,10S,16E,21R)-7-[(2Z)-ethylidene]-4,21-bis(1-methylethyl)-2-oxa-12,13-dithia-5,8,20,23-tetraazabicyclo[8.7.6]tricos-16-ene-3,6,9,19,22-pentone] the “phagocytic activity against cancer cells” value [1, 8] was 29%, the “phagocytic activity against cancer cells” value [2, 8] was 8% and the “phagocytic activity against cancer cells” value [3] was ≥ 14%. For the same compound, the “phagocytic activity against cancer cells” value [4] was ≥ 27%.

With `N.N.[Cl][Pt][Cl]` [cisplatin] the “phagocytic activity against cancer cells” value ([1]; cisplatin combination test group (20 μM, 2 days) with anti-CAPRIN-1 antibody) was 13%.

For `Cc1[nH]c2ccccc2c1CCNCc1ccc(/C=C/C(=O)NO)cc1` [panobinostat, (2E)-N-Hydroxy-3-[4-({[2-(2-methyl-TH-indol-3-yl)ethyl]amino}methyl)phenyl]prop-2-enamide], the “phagocytic activity against cancer cells” value [1, 9] was 15%, the “phagocytic activity against cancer cells” value [2, 9] was 8% and the “phagocytic activity against cancer cells” value [5] was 32%. The “phagocytic activity against cancer cells” value [6] was 41% and the “phagocytic activity against cancer cells” value [7] was 81%.
